Experimental findings from PMC10285260, “Processive kinetics in the three-step lanosterol 14α-demethylation reaction catalyzed by human cytochrome P450 51A1” (The Journal of Biological Chemistry, 2023) are described below.

The target in test [1] is T1, human P450 51A1 (Homo sapiens, UniProt Q16850).
T1 sequence (Q16850 1-509): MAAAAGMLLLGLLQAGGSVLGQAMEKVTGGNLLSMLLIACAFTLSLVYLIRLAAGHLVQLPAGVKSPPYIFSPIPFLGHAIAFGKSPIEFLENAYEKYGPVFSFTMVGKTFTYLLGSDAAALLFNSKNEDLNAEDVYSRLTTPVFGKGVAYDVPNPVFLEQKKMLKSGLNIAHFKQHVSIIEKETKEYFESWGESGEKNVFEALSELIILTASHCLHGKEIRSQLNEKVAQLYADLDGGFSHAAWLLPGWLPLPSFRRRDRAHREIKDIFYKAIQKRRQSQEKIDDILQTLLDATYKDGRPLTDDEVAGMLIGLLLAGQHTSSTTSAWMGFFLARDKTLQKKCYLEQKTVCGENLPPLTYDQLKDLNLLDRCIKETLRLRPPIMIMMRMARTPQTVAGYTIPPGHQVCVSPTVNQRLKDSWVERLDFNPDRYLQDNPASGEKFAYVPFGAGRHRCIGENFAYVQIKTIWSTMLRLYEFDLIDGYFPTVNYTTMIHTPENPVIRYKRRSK
Nature of the test: Oxidation of dihydroagnosterol by human P450 51A1 (LC-UV). The format is biochemical. The arrangement: made in house; host or cells: Escherichia coli. On the procedure: The possibility existed that this molecule could be a substrate. […] However, on the basis of the UV and mass spectra and literature precedents ([38], [39]), we have assigned the structure as 4,4′-dimethylcholesta-7,9,14-trienol. The UV spectrum retains (Fig. 6) the detailed chromophore of agnosterol (Fig. S23) plus an additional transition at higher wavelength, as expected based on the UV spectrum of FF-MAS (Fig. S18).
Figure 6 Oxidation of dihydroagnosterol by human P450 51A1. The incubation included 0.1 μM P450 51A1 and 10 μM dihydroagnosterol and ran for 10 min at 37 °C in the absence and presence of NADPH. The products were extracted and analyzed by UPLC-UV and UPLC-MS. A, UPLC chromatogram (UV, 192 and 245 nm). B, mass spectrum [M+H-H2O]^+, calculated for C29H45, 393.3516; found, 393.3493 (−5.9 ppm) and assigned structure. C, UV spectrum (from tR 7.3 min peak of A). UPLC, ultra-performance liquid chromatography.

Test [2] has as its target T1, human P450 51A1. Briefly: Inhibition of dihydrolanosterol 14-demethylation (oxidation to dihydro FF-MAS). The format is biochemical. Also noted: made in house; host or cells: Escherichia coli. The source says:
Agnosterol (Fig. 2) is a common Δ^7,14 contaminant of commercial lanosterol preparations (Fig. S22) ([25], [36]). We also encountered this molecule and its derivatives, with its characteristic UV spectra derived from our synthesis beginning with 7-dehydrocholesterol (Figs. S1 and S17). The most likely entry point is the m-chloroperbenzoic acid epoxidation (Fig. S1, step 7) ([37]). […] The contaminant could be removed by preparative HPLC (C18, CH3CN, see Supporting Information).
epi-Dihydrolanosterol, which appears to be an obscure natural product ([32]), was recovered as a side product in one of the synthetic steps and shown to bind to human P450 51A1 tightly and be demethylated at a similar rate as the common β-hydroxy isomer (Figs 5B and 7A), behavior similar to that earlier reported for the yeast (Saccharomyces cerevisiae) enzyme ([34]). An H-bond between the sterol C3-OH and the main chain oxygen of a P450 51 residue preceding the beginning of the β1-4 strand is observed in four P450 51 structures in the Protein Data Bank: Trypanosoma brucei [3P99] ([48]), Trypanosoma cruzi [6FMO] ([49]), human [6UEZ] ([19]), plus a sterol-forming bacterium, Methylococcus capsulatus [7SNM] ([50]). Whether this interaction is replaced by another with epi-lanosterol is presently a point of conjecture and future research. […]

For `CC(C)CCCC(C)[C@H]1CC[C@@]2(C)C3=CCC4C(C)(C)[C@@H](O)CC[C@]4(C)C3=CC[C@]12C` (stereo partly drawn) [dihydroagnosterol], the “rate of disappearance relative to that of dihydrolanosterol” value at human P450 51A1 [1] is “one-half”. This compound also registered a rate of disappearance on human P450 51A1 [1] (0.1 μM P450 51A1, 10 μM dihydroagnosterol, 37 °C) of approximately 10 min⁻¹. For the same compound, the IC50 (commonly the concentration at which inhibition is half-maximal) on human P450 51A1 [2] is not below 10 µM.
